Assay results taken from patent publication US20100249408A1, “USE OF NOVEL COMPOUND HAVING AFFINITY FOR AMYLOID, AND PROCESS FOR PRODUCTION OF THE SAME” (NIHON MEDI-PHYSICS CO., LTD., priority 2007, published 2010).

Columns and labels:
[1] = biological target: T1, amyloid (aggregated Aβ1-40) (Homo sapiens, UniProt P05067); test: Measurement of amyloid affinity: in vitro binding test, inhibition of [125I]3′-I-BTA-0 binding
T1 construct: Aβ1-40 (Peptide Institute) was dissolved in phosphate buffer (pH 7.4); purchased Peptide Institute
Procedure: Affinity of the present compounds with amyloid was examined by the following in vitro binding tests.
(1) Aβ1-40 (Peptide Institute) was dissolved in phosphate buffer (pH 7.4) and shaken at 37° C. for 62-72 hours, to obtain a suspension of aggregated Aβ (concentration: 1 mg/mL equivalent, hereinafter referred to as amyloid suspension in these Examples).
(3) According to the method described in a literature (Wang, Y., et al., J. Labeled Compounds Radiopharmaceut. 44, 5239 (2001)), [^125I]2-(3′-iodo-4′-aminophenyl)benzothiazole (hereinafter referred to as [^125I]3′-I-BTA-0) was prepared from a labeling precursor 2-(4′-aminophenyl)benzothiazole, and dissolved in ethanol. [^125I]sodium iodide of 12-71 MBq (10-30 μL in volume) was used for the production, to obtain [^125I]3′-I-BTA-0 of 1-22 MBq immediately after the synthesis.
(5) Samples in which [^125I]3′-I-BTA-0, each compound for evaluation and amyloid were dissolved in a 0.1% bovine serum albumin-containing phosphate buffer (pH 7.4) at final concentrations shown in Table 2 were prepared. The resulting samples were placed in each well (about 0.3 mL in volume) of a 96-well microplate.
(6) The microplate filled with the sample solutions was shaken at a given rate (400 rpm) at 22° C. for 3 hours. Then, each sample solution was filtered through a glass fiber filter (trade name: Mulutiscreen™-FC, manufactured by Millipore), to separate the [^125I3′-I-BTA-0 attached to amyloid from the [^125I]3′-I-BTA-0 free from amyloid.
(7) The glass fiber filter used for the filtration of each sample solution was washed with a 0.1% bovine serum albumin-containing phosphate buffer (pH 7.4) (0.5 mL×5), and radioactivity of the glass fiber filter was measured with an autowell gamma system (manufactured by Aloka, Type: ARC-301B).
(8) Separately, a solution containing 15 μmol/L of 6-Me-BTA-2, 400 pmol/L of [^125I]3′-I-BTA-0 and 1 μmol/L of Aβ1-40 in a 0.1% bovine serum albumin-containing phosphate buffer (pH 7.4) was prepared and subjected to the same procedures as described above in (6) and (7) to measure a radioactivity level. The measured radioactivity level was defined as the background radioactivity level, and used in the calculation of the inhibition ratio (hereinafter referred to as BG).
(9) Using the radioactivity levels measured above in (7) and (8), the inhibition ratio was determined by the following formula (1).
A graph in which values converted by probit transformation from the obtained inhibition ratios were plotted relative to logarithms of concentrations of compounds for evaluation was prepared to obtain an approximate straight line by the least square method. Using the line, the concentration of each compound for evaluation was determined, at which the radioactivity level is half of the level of the sample free from each compound for evaluation, and was defined as a 50% inhibition concentration of each compound (hereinafter referred to as IC50% value). Using the value as an indicator, affinity of each compound for evaluation with amyloid (aggregated Aβ1-40) was evaluated.

[2] = tested on: Salmonella typhimurium TA98 and TA100; test: Reverse mutation test (Ames test), overall judgment; type: cell-based; settings: TA98 and TA100, with and without S9mix
Procedure: (§1) In order to examine gene mutagenicity of Compounds 1, 2 and 4, reverse mutation test using Salmonella typhimurium TA98 and TA100 (hereinafter referred to as Ames test) was conducted.
(§2) The test was conducted without addition of S9mix and with addition of S9mix. Dimethylsulfoxide was used as a negative control. A positive control was 2-(2-furyl)-3-(5-nitro-2-furyl)acrylamide in case S9mix was not added, and 2-aminoanthracene in case S9 mix was added.
(§3) The amount of each sample to be added to the test plate was 7 dosages (geometric ratio 4) with the maximum dose being 5000 μg/plate. After a sample to be examined and a strain (TA98 or TA100), or a sample to be examined, S9mix and the strain were mixed together, the mixture was multilayered using soft agar on a medium of a test plate, and then incubated at 37° C. for 48 hours.
(§4) In order to examine gene mutagenicity of Compound 8, reverse mutation test using Salmonella typhimurium TA98 and TA100 (hereinafter referred to as Ames test) was conducted.
(§5) The test was conducted without addition of S9mix and with addition of S9mix. Dimethylsulfoxide was used as a negative control. A positive control was 2-(2-furyl)-3-(5-nitro-2-furyl)acrylamide in case S9mix was not added, and 2-aminoanthracene in case S9mix was added.
(§6) The amount of Compound 8 to be added to the test plate was 7 dosages (geometric ratio 3) with the maximum dose being 5000 μg/plate. After Compound 8 and a strain (TA98 or TA100), or Compound 8, S9mix and the strain were mixed together, the mixture was multilayered using soft agar on a medium of a test plate, and then incubated at 37° C. for 48 hours.

[3] = tested on: Salmonella typhimurium TA100; test: Reverse mutation test (Ames test), TA100; type: cell-based; settings: maximum 5000 μg/plate
Procedure: as §1, §2, §3, §4, §5, §6

[4] = tested on: Salmonella typhimurium TA98; test: Reverse mutation test (Ames test), TA98; type: cell-based; settings: maximum 5000 μg/plate
Procedure: as §1, §2, §3, §4, §5, §6

[5] = Partition coefficient based on the octanol extraction method (logPoctanol); settings: octanol / 10 mmol/L phosphate buffer (pH 7.4), radioactivity count
Procedure: 10 μL each of the prepared sample solution was respectively added to 2 mL of octanol, further, 2 mL of 10 mmol/L phosphate buffer (pH 7.4) was added, and stirred for 30 seconds. […] Using the obtained radioactivity count, log Poctanol was calculated in accordance with the equation (2).

[6] = Transferability into brain and clearance (Example I-16, Comparative Example I-7); type: in vivo, male Wistar rats; settings: rats, intravenous injection, two animals
Procedure: Using Compound 6, a time course change of radioactive accumulation in brain of male Wistar rats (7-week old) was measured.
Also, radioactivity (hereinafter referred to as B in this Example) of 0.05 mL of a 1000-fold diluted solution of the injected solution was measured in the same manner as above. Using these measurement results, radioactive accumulation per unit weight of brain (% ID/g) at the respective time points was calculated in accordance with the following formula (3).

[7] = Transferability into brain and clearance (Examples II-11, II-12, Comparative Example II-1); settings: rats, intravenous injection, three animals
Procedure: Using the Compounds 10 and 11, a time course change of radioactive accumulation in brain of male Wistar rats (7-week old) was measured.
The rats were sacrificed by bleeding from abdominal artery, and brains were removed and subjected to measurement of mass of brains and further subjected to measurement of radioactivity (hereinafter referred to as A in this Example) with a single channel analyzer (detector type: SP-20 manufactured by OHYO KOKEN KOGYO Co., Ltd.) 2, 5, 30 and 60 minutes after the injection. Also, radioactivity (hereinafter referred to as B in this Example) of the rest of the whole body was measured in the same manner as above. Using these measurement results, radioactive accumulation per unit weight of brain (% ID/g) at the respective time points were calculated in accordance with the following formula (4).
Three animals were used for experiment at the respective time points.

[8] = Table 6, 7 dosages (geometric ratio 4)
[9] = Table 8, 7 dosages (geometric ratio 3)

T1 sequence (P05067 672-711 limits assumed): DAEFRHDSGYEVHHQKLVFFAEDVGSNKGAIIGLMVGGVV

Nc1ccc(-c2nc3ccccc3s2)cc1I [3′-I-BTA-0, 2-(3′-Iodo-4′-aminophenyl)benzothiazole, reference compound]
IC50 [1]: 10.1 nM

Oc1ccc(-c2cn3cc(OCCCF)ccc3n2)cc1 [Compound 3, 6-(3′-fluoropropoxy)-2-(4′-hydroxyphenyl)imidazo[1,2-a]pyridine]
IC50 [1]: 54.4 nM

Oc1ccc(-c2cn3cc(I)cnc3n2)cc1 [Compound 4, 2-(4′-hydroxyphenyl)-6-iodoimidazo[1,2-a]pyrimidine]
Judgment in the Ames test (gene mutagenicity) ([2]; up to 5000 μg/plate (geometric ratio 4)): negative | Mutagenicity, TA100, with addition of S9mix [3, 8]: Negative | Mutagenicity, TA100, without addition of S9mix [3, 8]: Negative | IC50 [1]: 54.1 nM | Mutagenicity, TA98, with addition of S9mix [4, 8]: Negative | Mutagenicity, TA98, without addition of S9mix [4, 8]: Negative

Oc1ccc(-c2cn3cc([125I])ccc3n2)cc1 [Compound 5, [^125I]-2-(4′-hydroxyphenyl)-6-iodoimidazo[1,2-a]pyridine]
logPoctanol value [5]: 1.6

Cc1ccc2nc(-c3ccc(N(C)C)cc3)sc2c1 [Compound 6-Me-BTA-2, 6-methyl-2-[4′-(N,N-dimethylamino)phenyl]benzothiazole, reference compound]
IC50 [1]: 25.4 nM

Oc1ccc(-c2cn3cc(I)ncc3n2)cc1 [Compound 8, 2-(4′-hydroxyphenyl)-6-iodoimidazo[1,2-a]pyrazine]
Judgment in the Ames test (gene mutagenicity) ([2]; up to 5000 μg/plate (geometric ratio 3)): negative | Mutagenicity, TA100, with addition of S9mix [3, 9]: Negative | Mutagenicity, TA100, without addition of S9mix [3, 9]: Negative | Mutagenicity, TA98, with addition of S9mix [4, 9]: Negative | Mutagenicity, TA98, without addition of S9mix [4, 9]: Negative

Oc1ccc(-c2cn3cc([123I])cnc3n2)cc1 [Compound 9, [^123I]-2-(4′-hydroxyphenyl)-6-iodoimidazo[1,2-a]pyrimidine]
logPoctanol value [5]: 1.7

Nc1c(/N=N/c2ccc(-c3ccc(/N=N/c4cc(S(=O)(=O)O)c5ccccc5c4N)cc3)cc2)cc(S(=O)(=O)O)c2ccccc12 [Congo-Red, reference compound]
IC50 [1]: > 1000 nM

CN(C)c1ccc(-c2cn3cc([125I])ccc3n2)cc1 [[^125I]-IMPY, reference compound]
logPoctanol value [5]: 2.1

CN(C)c1ccc(-c2cn3cc([123I])ccc3n2)cc1 [^123I-IMPY, reference compound]
Radioactive accumulation in brain per unit weight ([6]; after 2 min.): 1.02 % ID/g | Radioactive accumulation in brain per unit weight ([6]; after 5 min.): 0.99 % ID/g | Radioactive accumulation in brain per unit weight ([6]; after 30 min.): 0.20 % ID/g | Radioactive accumulation in brain per unit weight ([6]; after 60 min.): 0.08 % ID/g | Radioactive accumulation in brain per unit weight ([7]; after 2 min.): 1.19 % ID/g | Radioactive accumulation in brain per unit weight ([7]; after 5 min.): 0.97 % ID/g | Radioactive accumulation in brain per unit weight ([7]; after 30 min.): 0.23 % ID/g | Radioactive accumulation in brain per unit weight ([7]; after 60 min.): 0.09 % ID/g
